These results are taken from ChEMBL document CHEMBL1154426, “In vitro susceptibilities of Mycoplasma putrefaciens field isolates” (2007).

Holding throughout (assay type): functional
In test [1] the test system is Mycoplasma putrefaciens. The test can be described thus: Antimicrobial activity against Mycoplasma putrefaciens Jordanian isolates after 24 hrs by twofold serial dilution method.
In test [2] the test system is Mycoplasma putrefaciens. Kind of test: Antimicrobial activity against Mycoplasma putrefaciens French isolates after 24 hrs by twofold serial dilution method.
Test [3] concerns Mycoplasma putrefaciens. The test can be described thus: Antimicrobial activity against Mycoplasma putrefaciens KS1 after 24 hrs by twofold serial dilution method.

In brackets after ≈: the same amount, converted by molar mass. Some results are limits rather than exact numbers.

On to `C[C@H]1c2cccc(O)c2C(=O)C2=C(O)[C@]3(O)C(=O)C(C(N)=O)=C(O)[C@@H](N(C)C)[C@@H]3[C@@H](O)[C@@H]21.O` [DOXYCYCLINE], for which the MIC50 was found to be 0.125 µg/mL in the test with Mycoplasma putrefaciens [1] and 0.25 µg/mL in the test with Mycoplasma putrefaciens [2]. For the same molecule, the MIC90 in the test with Mycoplasma putrefaciens [1] came out at 0.25 µg/mL; with Mycoplasma putrefaciens [2], 2 µg/mL. In the test on Mycoplasma putrefaciens [3] (KS1, 24 h), this molecule had a minimum inhibitory concentration (MIC) of 0.03 µg/mL.
In the test with Mycoplasma putrefaciens [1], `O=C(O)c1cn(C2CC2)c2cc(N3CCNCC3)c(F)cc2c1=O` [CIPROFLOXACIN] gave an MIC50 of 0.25 µg/mL (≈ 0.754 µM) and an MIC90 of 0.25 µg/mL (≈ 0.754 µM). In the test with Mycoplasma putrefaciens [2], the MIC50 stood at 0.25 µg/mL (≈ 0.754 µM) and the MIC90 amounted to 0.5 µg/mL (≈ 1.51 µM). The molecule further returned an MIC in the test with Mycoplasma putrefaciens [3] (KS1, 24 h) of 0.25 µg/mL (≈ 0.754 µM).
In the test with Mycoplasma putrefaciens [1], `CC[C@H]1OC(=O)C[C@@H](O)[C@H](C)[C@@H](O[C@@H]2O[C@H](C)[C@@H](O[C@H]3C[C@@](C)(O)[C@@H](O)[C@H](C)O3)[C@H](N(C)C)[C@H]2O)[C@@H](CC=O)C[C@@H](C)C(=O)/C=C/C(C)=C/[C@@H]1CO[C@@H]1O[C@H](C)[C@@H](O)[C@@H](OC)[C@H]1OC` [TYLOSIN] yielded an MIC50 of 0.015 µg/mL (≈ 0.0164 µM) and an MIC90 of 0.015 µg/mL (≈ 0.0164 µM). In the test with Mycoplasma putrefaciens [2], this molecule showed an MIC50 of 0.03 µg/mL (≈ 0.0327 µM) and an MIC90 of 0.06 µg/mL (≈ 0.0655 µM). Moreover, 0.06 µg/mL (≈ 0.0655 µM) was the least that counted as inhibitory with Mycoplasma putrefaciens [3] (KS1, 24 h) (MIC).
As for `CCC[C@@H]1C[C@@H](C(=O)N[C@@H]([C@H]2O[C@H](SC)[C@H](O)[C@@H](O)[C@H]2O)[C@@H](C)O)N(C)C1` [LINCOMYCIN], in the test on Mycoplasma putrefaciens [1], the MIC50 is 0.5 µg/mL (≈ 1.23 µM) and the MIC90 was 1 µg/mL (≈ 2.46 µM). In the test on Mycoplasma putrefaciens [2], this molecule registered an MIC50 of 1 µg/mL (≈ 2.46 µM) and an MIC90 of 2 µg/mL (≈ 4.92 µM). The molecule also showed an MIC with Mycoplasma putrefaciens [3] (KS1, 24 h) of 1 µg/mL (≈ 2.46 µM).
Consider `CCn1cc(C(=O)O)c(=O)c2cc(F)c(N3CCNCC3)cc21` [NORFLOXACIN], for which, in the test with Mycoplasma putrefaciens [1], the MIC50 is 2 µg/mL (≈ 6.26 µM) and the MIC90 was 2 µg/mL (≈ 6.26 µM). In the test on Mycoplasma putrefaciens [2], this molecule gave an MIC50 of 2 µg/mL (≈ 6.26 µM) and an MIC90 of 4 µg/mL (≈ 12.5 µM). The molecule further showed a minimum inhibitory concentration (MIC) against Mycoplasma putrefaciens [3] (KS1, 24 h) of 2 µg/mL (≈ 6.26 µM).
Regarding `CN(C)[C@@H]1C(O)=C(C(N)=O)C(=O)[C@@]2(O)C(O)=C3C(=O)c4c(O)cccc4[C@@](C)(O)[C@H]3[C@H](O)[C@@H]12` [OXYTETRACYCLINE], the MIC50 against Mycoplasma putrefaciens [1] amounted to 0.5 µg/mL (≈ 1.09 µM); in the test on Mycoplasma putrefaciens [2], 1 µg/mL (≈ 2.17 µM). For the same molecule, the figures for the MIC90 against Mycoplasma putrefaciens [1] and in the test with Mycoplasma putrefaciens [2] were 0.5 µg/mL (≈ 1.09 µM) and 4 µg/mL (≈ 8.69 µM), respectively. Besides, the MIC against Mycoplasma putrefaciens [3] (KS1, 24 h) worked out at 0.5 µg/mL (≈ 1.09 µM).
GENTAMICIN: the MIC50 turned out to be 32 µg/mL against Mycoplasma putrefaciens [1] and 64 µg/mL against Mycoplasma putrefaciens [2]. The MIC90 in the test on Mycoplasma putrefaciens [1] came out at 32 µg/mL; against Mycoplasma putrefaciens [2] it was 64 µg/mL. This molecule yielded a minimum inhibitory concentration (MIC) with Mycoplasma putrefaciens [3] of 64 µg/mL.
For SPIRAMYCIN, the values for the MIC50 in the test on Mycoplasma putrefaciens [1] and in the test on Mycoplasma putrefaciens [2] were 0.125 µg/mL and 0.25 µg/mL, respectively. Besides, the MIC90 in the test with Mycoplasma putrefaciens [1] amounted to 0.25 µg/mL; in the test on Mycoplasma putrefaciens [2] it was 0.5 µg/mL. The molecule further had an MIC with Mycoplasma putrefaciens [3] of 0.25 µg/mL.
Regarding `CCN1CCN(c2cc3c(cc2F)c(=O)c(C(=O)O)cn3C2CC2)CC1` [ENROFLOXACIN], in the test on Mycoplasma putrefaciens [1], the MIC50 came out at 0.125 µg/mL (≈ 0.348 µM) and the MIC90 was determined as 0.125 µg/mL (≈ 0.348 µM). In addition, in the test on Mycoplasma putrefaciens [2], the MIC50 came to 0.125 µg/mL (≈ 0.348 µM) and the MIC90 turned out to be 0.25 µg/mL (≈ 0.696 µM). In addition, the lowest concentration to inhibit growth in the test with Mycoplasma putrefaciens [3] (KS1, 24 h) (MIC) was 0.125 µg/mL (≈ 0.348 µM).
Turning to `CN(C)[C@@H]1C(O)=C(C(N)=O)C(=O)[C@@]2(O)C(O)=C3C(=O)c4c(O)ccc(Cl)c4[C@@](C)(O)[C@H]3C[C@@H]12` [CHLORTETRACYCLINE], the MIC50 against Mycoplasma putrefaciens [1] worked out at 4 µg/mL (≈ 8.35 µM); in the test with Mycoplasma putrefaciens [2], 8 µg/mL (≈ 16.7 µM). For the same molecule, the MIC90 in the test on Mycoplasma putrefaciens [1] was determined as 4 µg/mL (≈ 8.35 µM); against Mycoplasma putrefaciens [2] it was 16 µg/mL (≈ 33.4 µM). Moreover, in the test on Mycoplasma putrefaciens [3] (KS1, 24 h), the lowest concentration to inhibit growth (MIC) was 4 µg/mL (≈ 8.35 µM).
On to `CN[C@@H]1[C@H](O)[C@H](NC)[C@H]2O[C@@]3(O)C(=O)C[C@@H](C)O[C@H]3O[C@@H]2[C@H]1O` [SPECTINOMYCIN], for which, in the test with Mycoplasma putrefaciens [1], the MIC50 is 16 µg/mL (≈ 48.1 µM) and the MIC90 turned out to be 32 µg/mL (≈ 96.3 µM). In the test with Mycoplasma putrefaciens [2], this molecule registered an MIC50 of 16 µg/mL (≈ 48.1 µM) and an MIC90 of 16 µg/mL (≈ 48.1 µM). Further, inhibition of growth in the test with Mycoplasma putrefaciens [3] (KS1, 24 h) (MIC) required 32 µg/mL (≈ 96.3 µM).
Consider `O=C(N[C@H](CO)[C@H](O)c1ccc([N+](=O)[O-])cc1)C(Cl)Cl` [CHLORAMPHENICOL], for which the MIC50 against Mycoplasma putrefaciens [1] turned out to be 2 µg/mL (≈ 6.19 µM); against Mycoplasma putrefaciens [2], 4 µg/mL (≈ 12.4 µM). Besides, the MIC90 in the test on Mycoplasma putrefaciens [1] and against Mycoplasma putrefaciens [2] was 4 µg/mL (≈ 12.4 µM) each time. Also, the minimal inhibitory concentration (MIC) against Mycoplasma putrefaciens [3] (KS1, 24 h) amounted to 4 µg/mL (≈ 12.4 µM).
Consider `CN[C@@H]1[C@H](O[C@H]2[C@H](O[C@H]3[C@H](O)[C@@H](O)[C@H](N=C(N)N)[C@@H](O)[C@@H]3N=C(N)N)O[C@@H](C)[C@]2(O)C=O)O[C@@H](CO)[C@H](O)[C@H]1O` [STREPTOMYCIN], for which the MIC50 in the test on Mycoplasma putrefaciens [1] and in the test with Mycoplasma putrefaciens [2] was 32 µg/mL (≈ 55 µM) each time. Besides, the MIC90 amounted to 32 µg/mL (≈ 55 µM) in the test with Mycoplasma putrefaciens [1] and 64 µg/mL (≈ 110 µM) with Mycoplasma putrefaciens [2]. Also, 64 µg/mL (≈ 110 µM) was the least that counted as inhibitory with Mycoplasma putrefaciens [3] (KS1, 24 h) (MIC).
In the test on Mycoplasma putrefaciens [1], `CCn1cc(C(=O)O)c(=O)c2ccc(C)nc21` [NALIDIXIC ACID] displayed an MIC50 above 256 µg/mL and an MIC90 above 256 µg/mL. Moreover, in the test with Mycoplasma putrefaciens [2], the MIC50 is above 256 µg/mL and the MIC90 is above 256 µg/mL. Further, in the test with Mycoplasma putrefaciens [3] (KS1, 24 h), 512 µg/mL (≈ 2200 µM) was the least that counted as inhibitory (MIC).
Consider `CC[C@H]1OC(=O)[C@H](C)[C@@H](O[C@H]2C[C@@](C)(OC)[C@@H](O)[C@H](C)O2)[C@H](C)[C@@H](O[C@@H]2O[C@H](C)C[C@H](N(C)C)[C@H]2O)[C@](C)(O)C[C@@H](C)C(=O)[C@H](C)[C@@H](O)[C@]1(C)O` [ERYTHROMYCIN], for which, in the test on Mycoplasma putrefaciens [1], the MIC50 stood at 0.03 µg/mL (≈ 0.0409 µM) and the MIC90 stood at 0.03 µg/mL (≈ 0.0409 µM). In the test with Mycoplasma putrefaciens [2], this molecule showed an MIC50 of 0.03 µg/mL (≈ 0.0409 µM) and an MIC90 of 0.125 µg/mL (≈ 0.17 µM). Also, the MIC in the test on Mycoplasma putrefaciens [3] (KS1, 24 h) was determined as 0.03 µg/mL (≈ 0.0409 µM).

As a reminder, the MIC50 is the lowest concentration that inhibits either 50% of growth or 50% of the strains tested, depending on the study. Lower therefore signals greater potency. A word on the MIC90: it is an inhibitory concentration at the 90% level, which refers to growth in some studies and to a panel of isolates in others. A word on the MIC: it is the lowest concentration that inhibits growth of the organism. The low end stands for inhibition by little substance, the high end for a need for much substance.
